The values that follow come from ChEMBL document CHEMBL1144644, “Synthesis and biological evaluation of 12 allenic aromatic ethers” (Bioorg Med Chem Lett, 2007).

Molecules are shown by their SMILES.

For one assay, the system named is KB. The assay is described as follows: Antitumor activity against KB cells by MTT assay. In kind it is functional, cell-based. As to conditions: Homo sapiens.
Assay [1] is described as follows: Antitumor activity against KBv200 cells by MTT assay. As to conditions: Homo sapiens. Type of assay: functional, cell-based. A general note: Formazan colour is commonly taken as a measure of viable cells.

One may read the IC50 as the midpoint of a concentration-inhibition curve.

Take `C=C=CCOc1ccc(C(=O)OC)cc1`: the IC50 amounted to 22.5 µM in the assay on KB and 20.9 µM in assay [1].

For the compound `C=C=CCOc1ccc(/C=C/C(=O)OC)cc1`, the results for the IC50 (in the assay with KB; in assay [1]) were 27.6 µM and 19 µM, respectively.

For the compound `COC(=O)/C=C/c1ccc(O)c(O)c1` [METHYLCAFFEATE], the 50% inhibitory concentration (IC50) (with KB; in assay [1]) was greater than 200 µM in each case.

As for `COC(=O)c1ccc(O)cc1` [METHYLPARABEN], the IC50 (in the assay with KB; in assay [1]) was greater than 200 µM throughout.

As for `OCc1ccc(O)cc1` [PARAHYDROXYBENZYL ALCOHOL], the IC50 (with KB; in assay [1]) was greater than 200 µM each time.

On to `C=C=CCOc1ccc(/C=C/C(=O)OC)cc1OC`, for which the IC50 stood at 17.4 µM in the assay with KB and 18.3 µM in assay [1].

As for `C=C=CCOc1ccc(COc2ccc(/C=C/C(=O)OC)cc2)cc1`, the 50% inhibitory concentration (IC50) in the assay with KB stood at 48.8 µM; in assay [1], 55.5 µM.

Take `O=C(O)/C=C/c1ccc(O)cc1` [COUMARIC ACID]: the IC50 (with KB; in assay [1]) was greater than 200 µM throughout.

Turning to `O=C(/C=C/c1ccc(O)c(O)c1)OC1C[C@@](O)(C(=O)O)C[C@H](O)[C@@H]1O` (stereo partly drawn), the half-maximal inhibitory concentration (IC50) (in the assay on KB; in assay [1]) was greater than 200 µM each time.

`C=C=CCOC(=O)[C@]1(O)CC(OC(=O)/C=C/c2ccc(OCC=C=C)c(O)c2)[C@@H](O)[C@@H](O)C1` (stereo partly drawn): the half-maximal inhibitory concentration (IC50) with KB came to 53.1 µM; in assay [1], 35.7 µM.

Turning to `C=C=CCOc1ccc(/C=C/C(=O)NC2(C(=O)OC)CC2)cc1`, the half-inhibitory concentration (IC50) stood at 48.1 µM in the assay on KB and 77 µM in assay [1].

With `O=C(O)c1ccc(O)cc1` [PARABEN], the IC50 (in the assay on KB; in assay [1]) was greater than 200 µM in each case.

For the compound `COC(=O)C1(NC(=O)/C=C/c2ccc(O)cc2)CC1`, the IC50 (in the assay with KB; in assay [1]) was greater than 200 µM each time.

Consider `COC(=O)C1(N)CC1`, for which the IC50 is 135 µM in the assay with KB and greater than 200 µM in assay [1].

Regarding `COC(=O)/C=C/c1ccc(O)cc1` [METHYL P-HYDROXYCINNAMATE], the figures for the 50% inhibitory concentration (IC50) (with KB; in assay [1]) were 123 µM and 101 µM, respectively.

As to `C=C=CCOc1ccc(/C=C/C(=O)O)cc1`, the concentration for half-maximal inhibition (IC50) in the assay with KB worked out at 71.5 µM; in assay [1], 52.4 µM.

For the compound `C=C=CCOc1ccc(CO)cc1` [TERRICOLLENE C], the IC50 worked out at 74.5 µM with KB and 76.6 µM in assay [1].

Consider `C=C=CCOc1ccc(/C=C/C(=O)OC)cc1O`, for which the IC50 in the assay on KB is 29.4 µM; in assay [1], 23.4 µM.

On to `C=C=CCBr`, for which the IC50 (in the assay with KB; in assay [1]) was greater than 200 µM throughout.

As to `COC(=O)/C=C/c1ccc(O)c(OC)c1`, the IC50 (in the assay with KB; in assay [1]) was greater than 200 µM in each case.

As to `C=C=CCOc1ccc(C(=O)O)cc1`, the IC50 in the assay with KB stood at 40.6 µM; in assay [1], 49.6 µM.

Consider `C=C=CCO`, for which the IC50 (in the assay with KB; in assay [1]) was greater than 200 µM throughout.

Take `C=C=CCOc1ccc(COc2ccc(/C=C/C(=O)OC)cc2OC)cc1`: the concentration for half-maximal inhibition (IC50) with KB amounted to 34.6 µM; in assay [1], 30.3 µM.

`C=C=CCOc1ccc(COc2ccc(C(=O)OC)cc2)cc1`: the IC50 in the assay with KB came out at 75.4 µM; in assay [1], 52.9 µM.
